Test results taken from US20250041306A1, “TARGETED PROTEASE DEGRADATION (TED) PLATFORM” (EUBULUS BIOTHERAPEUTICS INC., priority 2021, published 2025).
Like-named read-outs stand apart in the source and are kept apart here.

Assays:
Format in all cases: cell-based
[1] = test system: Human Colon Cancer cells Colo205; assay: Cell proliferation experiment (Alarm blue), Colo205; details: Colo205 cells, 72 h culture; for EC50: read-out: Anti cell proliferative activity EC50, Colo205
Procedure: (§1) The cells were cultured in conventional ways, and the cells should be passed for at least 2 generations before plating. Cells at the logarithmic growth phase were collected, prepared into single cell suspensions and counted. The concentration of cells was adjusted to desired concentration, and cells were inoculated into a 96-well cell culture plate at 100 μl per well. 100 μL of complete medium of the test compound were added to each well, 2 replicate wells for each concentration were set up, and diluted with a 5-fold gradient, and continued to culture for 72 h. All cells were subjected to EC50 test for corresponding samples.
(§2) The fluorescence intensity of each well was detected using the Alarm blue method, and IC50 was calculated.
(§3) IC50 was calculated according to the following formula:
(§4) [formula] • wherein Min, Max and Slope represent the minimum, maximum and slope respectively.

[2] = test system: human gastric carcinoma cells N87; assay: Cell proliferation experiment (Alarm blue), N87; details: N87 cells, 72 h culture; for EC50: read-out: Anti cell proliferative activity EC50, N87
Procedure: as §1, §2, §3, §4

Human Colon Cancer HT-29 = assay: Cell proliferation experiment (Alarm blue), HT-29; details: HT-29 cells, 72 h culture; for EC50: read-out: Anti cell proliferative activity EC50, HT-29
Procedure: as §1, §2, §3, §4

[3] = test system: Human Small Cell Lung Cancer NCI-H82; assay: Cell proliferation experiment (Alarm blue), H82; details: H82 cells, 72 h culture; for EC50: read-out: Anti cell proliferative activity EC50, H82
Procedure: as §1, §2, §3, §4

[4] = test system: Human Small Cell Lung Cancer H69; assay: Cell proliferation experiment (Alarm blue), H69; details: H69 cells, 72 h culture; for EC50: read-out: Anti cell proliferative activity EC50, H69
Procedure: as §1, §2, §3, §4

EC50 ([1]; Homo sapiens, COLO 205, 72 h)	EC50 ([2]; Homo sapiens, 72 h)	EC50 (Human Colon Cancer HT-29; Homo sapiens)	EC50 ([3]; Homo sapiens, NCI-H82, 72 h)	EC50 ([4]; Homo sapiens, NCI-H69)	SMILES	EC50 [1]	EC50 [2]	EC50 (Human Colon Cancer HT-29)	EC50 [3]	EC50 [4]	other results
–	–	–	–	–	CNC(=O)c1ccccc1Nc1nc(Nc2ccc(N3CCN(C(=O)N[C@H]4CC[C@@H](N(CCC#Cc5ccc6c(c5)CN(C5CCC(=O)NC5=O)C6=O)C(=O)OC(C)C(C)SSC[C@@H](NC(=O)CC[C@@H](NC(=O)c5ccc(NCc6cnc7nc(N)[nH]c(=O)c7n6)cc5)C(=O)O)C(=O)N[C@H](Cc5ccccc5)C(=O)N[C@H]5CSSC[C@@H](C(=O)N[C@H](CO)[C@@H](C)O)NC(=O)[C@H]([C@@H](C)O)NC(=O)[C@H](CCCCN)NC(=O)[C@@H](Cc6c[nH]c7ccccc67)NC(=O)[C@H](Cc6ccccc6)NC5=O)CC4)CC3)cc2)ncc1Cl (stereo partly shown) [UB-181267]	519 nM	> 1000 nM	> 1000 nM	168 nM	> 1000 nM	–
–	–	–	–	–	CC[C@@H]1C(=O)N(C)c2cnc(Nc3ccc(-c4cn([C@H]5CC[C@@H](N(CCOCCC#Cc6cccc7c6CN(C6CCC(=O)NC6=O)C7=O)C(=O)OC(C)C(C)SSC[C@H](NC(=O)CC[C@H](NC(=O)c6ccc(NCc7cnc8nc(N)[nH]c(=O)c8n7)cc6)C(=O)O)C(=O)N[C@H](Cc6ccccc6)C(=O)N[C@H]6CSSC[C@@H](C(=O)N[C@H](CO)[C@@H](C)O)NC(=O)[C@H]([C@@H](C)O)NC(=O)[C@H](CCCCN)NC(=O)[C@@H](Cc7c[nH]c8ccccc78)NC(=O)[C@H](Cc7ccccc7)NC6=O)CC5)nn4)cc3OC)nc2N1C1CCCC1 (stereo partly shown) [UB-181268]	> 1000 nM	> 1000 nM	> 1000 nM	> 1000 nM	> 1000 nM	–
10.7 nM	28.8 nM	35.5 nM	11.6 nM	> 1000 nM	CNC(=O)c1ccccc1Nc1nc(Nc2ccc(N3CCC(NCC#Cc4ccc5c(c4)CN(C4CCC(=O)NC4=O)C5=O)CC3)cc2)ncc1Cl (stereo not shown) [UB-181269]	–	–	–	–	–	–
218 nM	258 nM	951 nM	147 nM	454 nM	NC(=O)c1ccccc1Nc1nc(Nc2ccc(N3CCN(C(=O)N[C@H]4CC[C@@H](NC5CN(CC#Cc6ccc7c(c6)CN(C6CCC(=O)NC6=O)C7=O)C5)CC4)CC3)cc2)ncc1Cl (stereo partly shown) [UB-181270]	–	–	–	–	–	–
21.1 nM	23.1 nM	332 nM	19.1 nM	> 1000 nM	CNC(=O)c1ccccc1Nc1nc(Nc2ccc(N3CCN(C(=O)CNCCC#Cc4ccc5c(c4)CN(C4CCC(=O)NC4=O)C5=O)CC3)cc2)ncc1Cl (stereo not shown) [UB-181272]	–	–	–	–	–	–
21.4 nM	> 1000 nM	56.2 nM	21.6 nM	375 nM	NC(=O)c1ccccc1Nc1nc(Nc2ccc(N3CCN(C(=O)CNCCC#Cc4ccc5c(c4)CN(C4CCC(=O)NC4=O)C5=O)CC3)cc2)ncc1Cl (stereo not shown) [UB-181273]	–	–	–	–	–	–
49.4 nM	18.2 nM	522 nM	27.7 nM	> 1000 nM	NC(=O)c1ccccc1Nc1nc(Nc2ccc(N3CCN(C(=O)NC4CCN(CCNCCC#Cc5ccc6c(c5)CN(C5CCC(=O)NC5=O)C6=O)CC4)CC3)cc2)ncc1Cl (stereo not shown) [UB-181274]	–	–	–	–	–	–
–	–	–	–	–	CC(OC(=O)N(CCC#Cc1ccc2c(c1)CN(C1CCC(=O)NC1=O)C2=O)C1CCC(NC(=O)N2CCN(c3ccc(Nc4ncc(Cl)c(Nc5ccccc5C(N)=O)n4)cc3)CC2)CC1)C(C)SSC[C@H](N)C(=O)N[C@H](Cc1ccccc1)C(=O)N[C@H]1CSSC[C@@H](C(=O)N[C@H](CO)[C@@H](C)O)NC(=O)[C@H]([C@@H](C)O)NC(=O)[C@H](CCCCN)NC(=O)[C@@H](Cc2c[nH]c3ccccc23)NC(=O)[C@H](Cc2ccccc2)NC1=O (stereo partly shown) [UB-181275]	442 nM	> 1000 nM	968 nM	740 nM	> 1000 nM	–
65.2 nM	> 1000 nM	415 nM	24.9 nM	> 1000 nM	NC(=O)c1ccccc1Nc1nc(Nc2ccc(C3CCN(C(=O)N[C@H]4C[C@@H](NCCC#Cc5ccc6c(c5)CN(C5CCC(=O)NC5=O)C6=O)C4)CC3)cc2)ncc1Cl (stereo partly shown) [UB-181279]	–	–	–	–	–	–
–	–	–	–	–	CC(OC(=O)N(CCC#Cc1ccc2c(c1)CN(C1CCC(=O)NC1=O)C2=O)C1CCC(NC(=O)N2CCN(c3ccc(Nc4ncc(Cl)c(Nc5ccccc5C(N)=O)n4)cc3)CC2)CC1)C(C)SSC[C@H](NC(=O)CCOCCOCCOCCOCCOCCOCCOCCOCCNC(=O)CC[C@H](NC(=O)c1ccc(NCc2cnc3nc(N)[nH]c(=O)c3n2)cc1)C(=O)O)C(=O)N[C@H](Cc1ccccc1)C(=O)N[C@H]1CSSC[C@@H](C(=O)N[C@H](CO)[C@@H](C)O)NC(=O)[C@H]([C@@H](C)O)NC(=O)[C@H](CCCCN)CC(=O)[C@@H](Cc2c[nH]c3ccccc23)NC(=O)[C@H](Cc2ccccc2)NC1=O (stereo partly shown) [UB-181280]	1.9 nM	> 1000 nM	> 1000 nM	647 nM	> 1000 nM	–
–	–	–	–	–	C[C@H](NC(=O)CCCCCN1C(=O)CC(SC[C@H](N)C(=O)N[C@@H](Cc2ccccc2)C(=O)N[C@H]2CSSC[C@@H](C(=O)N[C@H](CO)[C@@H](C)O)NC(=O)[C@H]([C@@H](C)O)NC(=O)[C@H](CCCCN)NC(=O)[C@@H](Cc3c[nH]c4ccccc34)NC(=O)[C@H](Cc3ccccc3)NC2=O)C1=O)C(=O)N[C@@H](C)C(=O)N[C@@H](CC(N)=O)C(=O)Nc1ccc(COC(=O)N(CCC#Cc2ccc3c(c2)CN(C2CCC(=O)NC2=O)C3=O)C2CCC(NC(=O)N3CCN(c4ccc(Nc5ncc(Cl)c(Nc6ccccc6C(N)=O)n5)cc4)CC3)CC2)cc1 (stereo partly shown) [UB-181285]	62.1 nM	50 nM	528 nM	125 nM	> 1000 nM	–
–	–	–	–	–	CC(C)c1cc(-c2nnc(O)n2-c2ccc3c(ccn3CCC3CCN(C(=O)NCCOCCOCCOCCOCCOCCOCCOCCOCCC(=O)N[C@@H](CSC4CC(=O)N(CCCCCC(=O)N[C@@H](C)C(=O)N[C@@H](C)C(=O)N[C@@H](CC(N)=O)C(=O)Nc5ccc(COC(=O)N(CCC#Cc6ccc7c(c6)CN(C6CCC(=O)NC6=O)C7=O)C6CCC(NC(=O)N7CCN(c8ccc(Nc9ncc(Cl)c(Nc%10ncc(Cl)c(Nc%11ccccc%11C(N)=O)n%10)n9)cc8)CC7)CC6)cc5)C4=O)C(=O)N[C@H](Cc4ccccc4)C(=O)N[C@H]4CSSC[C@@H](C(=O)N[C@H](CO)[C@@H](C)O)NC(=O)[C@H]([C@@H](C)O)NC(=O)[C@H](CCCCN)NC(=O)[C@@H](Cc5c[nH]c6ccccc56)NC(=O)[C@H](Cc5ccccc5)NC4=O)CC3)c2)c(O)cc1O (stereo partly shown) [UB-181289]	621 nM	698 nM	> 1000 nM	410 nM	> 1000 nM	–
–	–	–	–	–	CC(C)c1cc(-c2nnc(O)n2-c2ccc3c(ccn3CCC3CCN(C(=O)CCSC4CC(=O)N(CCCCCC(=O)N[C@@H](C)C(=O)N[C@@H](C)C(=O)N[C@@H](CC(N)=O)C(=O)Nc5ccc(COC(=O)N(CCC#Cc6ccc7c(c6)CN(C6CCC(=O)NC6=O)C7=O)C6CCC(NC(=O)N7CCN(c8ccc(Nc9ncc(Cl)c(Nc%10ccccc%10C(N)=O)n9)cc8)CC7)CC6)cc5)C4=O)CC3)c2)c(O)cc1O.O=CO (stereo partly shown) [UB-181290]	–	–	–	–	–	Anti cell proliferative activity EC50, Colo205 [1]: insoluble; Anti cell proliferative activity EC50, N87 [2]: insoluble; Anti cell proliferative activity EC50, HT-29 (Human Colon Cancer HT-29): insoluble; Anti cell proliferative activity EC50, H82 [3]: insoluble; Anti cell proliferative activity EC50, H69 [4]: insoluble
–	–	–	–	–	CC(C)c1cc(-c2nnc(O)n2-c2ccc3c(ccn3CCC3CCN(C(=O)CCSSCCOC(=O)N(CCC#Cc4ccc5c(c4)CN(C4CCC(=O)NC4=O)C5=O)C4CCC(NC(=O)N5CCN(c6ccc(Nc7ncc(Cl)c(Nc8ccccc8C(N)=O)n7)cc6)CC5)CC4)CC3)c2)c(O)cc1O (stereo not shown) [UB-181294]	301 nM	818 nM	865 nM	245 nM	> 1000 nM	–
